According to ChEMBL document CHEMBL1139622, “Discovery of potent and selective orally bioavailable beta-substituted phenylalanine derived dipeptidyl peptidase IV inhibitors” (Bioorg Med Chem Lett, 2005):

How the values were obtained:
Dipeptidyl peptidase 4 [1] = target: Dipeptidyl peptidase 4 (Homo sapiens, UniProt P27487)
Description: Inhibitory concentration against dipeptidylpeptidase IV

Dipeptidyl peptidase 9 = Dipeptidyl peptidase 9 (Homo sapiens, UniProt Q86TI2)
Description: Inhibitory concentration against dipeptidylpeptidase 9

Dipeptidyl peptidase 2 = Dipeptidyl peptidase 2 (Homo sapiens, UniProt Q9UHL4)
Description: Inhibitory concentration against dipeptidylpeptidase II (QPP)

[2] = Half-life in rat; format: ADME; details: in vivo
[3] = Plasma clearance in rat; format: ADME, organism-based; details: read-out: Clp
in vivo = details: rat
Dipeptidyl peptidase 8 = Dipeptidyl peptidase 8 (Homo sapiens, UniProt Q6V1X1)
Description: Inhibitory concentration against dipeptidylpeptidase 8

Dipeptidyl peptidase 4 [4] = target: T1, Dipeptidyl peptidase 4 (Mus musculus, UniProt P28843); assay: Inhibitory concentration against mouse dipeptidylpeptidase IV in presence of 3% mouse serum
Dipeptidyl peptidase 4 [5] = target: T1, Dipeptidyl peptidase 4; assay: Inhibitory concentration against mouse dipeptidylpeptidase IV in presence of 15% mouse serum
Dipeptidyl peptidase 4 [6] = target: T1, Dipeptidyl peptidase 4; assay: Inhibitory concentration against mouse dipeptidylpeptidase IV in presence of 50% mouse serum
[7] = Half-life in dog; format: ADME, Canis lupus familiaris; details: in vivo
[8] = Half-life in rhesus monkey; format: ADME; details: cercopithecidae, in vivo
[9] = Plasma clearance in dog; format: ADME, organism-based, Canis lupus familiaris; details: read-out: Clp
[10] = Plasma clearance in rhesus monkey; format: ADME, organism-based; details: cercopithecidae, read-out: Clp
[11] = Half -life in rat; format: ADME; details: in vivo

Sequence of Dipeptidyl peptidase 9 (Q86TI2 whole entry): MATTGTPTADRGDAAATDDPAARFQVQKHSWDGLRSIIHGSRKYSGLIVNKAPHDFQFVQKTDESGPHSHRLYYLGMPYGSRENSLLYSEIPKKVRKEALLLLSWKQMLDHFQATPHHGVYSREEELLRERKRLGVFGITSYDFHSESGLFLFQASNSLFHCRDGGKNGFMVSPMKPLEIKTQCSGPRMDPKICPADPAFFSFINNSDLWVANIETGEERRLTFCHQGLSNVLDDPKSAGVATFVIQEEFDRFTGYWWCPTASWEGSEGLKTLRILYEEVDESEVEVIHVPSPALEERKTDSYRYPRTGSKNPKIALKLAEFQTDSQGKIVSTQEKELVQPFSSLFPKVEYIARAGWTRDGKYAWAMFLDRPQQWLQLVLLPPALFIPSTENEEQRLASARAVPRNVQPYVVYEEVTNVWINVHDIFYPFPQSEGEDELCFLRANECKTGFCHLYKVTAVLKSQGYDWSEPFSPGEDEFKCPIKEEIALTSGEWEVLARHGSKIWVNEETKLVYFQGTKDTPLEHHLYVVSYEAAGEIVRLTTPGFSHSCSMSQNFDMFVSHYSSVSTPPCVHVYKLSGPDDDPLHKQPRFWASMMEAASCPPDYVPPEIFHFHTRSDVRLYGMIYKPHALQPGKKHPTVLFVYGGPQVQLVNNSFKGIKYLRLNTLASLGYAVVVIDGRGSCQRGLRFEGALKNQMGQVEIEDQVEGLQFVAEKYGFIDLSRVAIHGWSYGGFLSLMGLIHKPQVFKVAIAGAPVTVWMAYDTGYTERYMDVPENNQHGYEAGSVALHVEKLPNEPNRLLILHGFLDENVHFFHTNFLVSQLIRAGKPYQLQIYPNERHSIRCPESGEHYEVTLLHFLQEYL
Sequence of Dipeptidyl peptidase 8 (Q6V1X1 whole entry): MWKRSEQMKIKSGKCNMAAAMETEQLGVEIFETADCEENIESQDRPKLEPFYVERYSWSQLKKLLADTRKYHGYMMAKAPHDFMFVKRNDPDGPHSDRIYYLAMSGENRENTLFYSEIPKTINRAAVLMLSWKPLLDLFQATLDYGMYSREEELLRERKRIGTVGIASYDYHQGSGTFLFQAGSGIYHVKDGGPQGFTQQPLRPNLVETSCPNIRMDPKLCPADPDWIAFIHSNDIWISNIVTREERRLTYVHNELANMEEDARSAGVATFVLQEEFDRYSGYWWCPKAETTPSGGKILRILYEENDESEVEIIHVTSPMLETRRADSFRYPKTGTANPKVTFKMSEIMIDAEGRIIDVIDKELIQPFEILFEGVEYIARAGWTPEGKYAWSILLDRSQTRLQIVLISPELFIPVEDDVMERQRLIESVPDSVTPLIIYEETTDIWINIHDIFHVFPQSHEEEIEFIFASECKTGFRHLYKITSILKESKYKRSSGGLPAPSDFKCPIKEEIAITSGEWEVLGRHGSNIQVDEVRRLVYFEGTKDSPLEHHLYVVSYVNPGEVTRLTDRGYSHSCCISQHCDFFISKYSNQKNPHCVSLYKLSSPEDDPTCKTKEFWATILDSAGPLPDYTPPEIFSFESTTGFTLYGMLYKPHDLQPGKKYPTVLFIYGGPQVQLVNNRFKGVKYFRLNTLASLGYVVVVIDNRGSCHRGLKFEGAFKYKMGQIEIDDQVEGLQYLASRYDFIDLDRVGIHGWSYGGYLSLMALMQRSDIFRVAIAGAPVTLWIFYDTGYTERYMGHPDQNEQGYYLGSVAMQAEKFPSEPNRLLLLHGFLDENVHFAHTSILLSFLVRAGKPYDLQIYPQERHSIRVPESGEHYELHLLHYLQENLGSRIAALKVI
Sequence of Dipeptidyl peptidase 4 (Homo sapiens, UniProt P27487) (P27487 whole entry): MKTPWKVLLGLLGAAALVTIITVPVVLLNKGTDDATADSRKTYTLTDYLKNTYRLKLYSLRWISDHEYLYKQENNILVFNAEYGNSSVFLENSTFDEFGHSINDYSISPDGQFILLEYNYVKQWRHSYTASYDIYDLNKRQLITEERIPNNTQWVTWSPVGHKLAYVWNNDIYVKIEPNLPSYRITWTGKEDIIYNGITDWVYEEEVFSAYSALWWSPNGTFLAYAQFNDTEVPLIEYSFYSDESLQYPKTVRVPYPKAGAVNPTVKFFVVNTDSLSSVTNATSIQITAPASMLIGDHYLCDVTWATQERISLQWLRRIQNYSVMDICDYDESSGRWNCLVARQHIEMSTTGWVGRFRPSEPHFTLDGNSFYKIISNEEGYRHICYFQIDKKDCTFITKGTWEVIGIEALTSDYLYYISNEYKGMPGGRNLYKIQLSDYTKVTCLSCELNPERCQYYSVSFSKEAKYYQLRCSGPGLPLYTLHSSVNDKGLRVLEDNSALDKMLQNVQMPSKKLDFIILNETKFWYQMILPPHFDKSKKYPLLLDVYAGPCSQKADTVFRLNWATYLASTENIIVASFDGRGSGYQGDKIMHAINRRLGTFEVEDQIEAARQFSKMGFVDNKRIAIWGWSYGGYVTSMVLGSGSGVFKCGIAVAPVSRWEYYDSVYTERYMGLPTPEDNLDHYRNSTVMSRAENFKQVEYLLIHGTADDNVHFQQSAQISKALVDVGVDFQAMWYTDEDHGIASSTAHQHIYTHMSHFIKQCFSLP
T1 sequence (P28843 whole entry): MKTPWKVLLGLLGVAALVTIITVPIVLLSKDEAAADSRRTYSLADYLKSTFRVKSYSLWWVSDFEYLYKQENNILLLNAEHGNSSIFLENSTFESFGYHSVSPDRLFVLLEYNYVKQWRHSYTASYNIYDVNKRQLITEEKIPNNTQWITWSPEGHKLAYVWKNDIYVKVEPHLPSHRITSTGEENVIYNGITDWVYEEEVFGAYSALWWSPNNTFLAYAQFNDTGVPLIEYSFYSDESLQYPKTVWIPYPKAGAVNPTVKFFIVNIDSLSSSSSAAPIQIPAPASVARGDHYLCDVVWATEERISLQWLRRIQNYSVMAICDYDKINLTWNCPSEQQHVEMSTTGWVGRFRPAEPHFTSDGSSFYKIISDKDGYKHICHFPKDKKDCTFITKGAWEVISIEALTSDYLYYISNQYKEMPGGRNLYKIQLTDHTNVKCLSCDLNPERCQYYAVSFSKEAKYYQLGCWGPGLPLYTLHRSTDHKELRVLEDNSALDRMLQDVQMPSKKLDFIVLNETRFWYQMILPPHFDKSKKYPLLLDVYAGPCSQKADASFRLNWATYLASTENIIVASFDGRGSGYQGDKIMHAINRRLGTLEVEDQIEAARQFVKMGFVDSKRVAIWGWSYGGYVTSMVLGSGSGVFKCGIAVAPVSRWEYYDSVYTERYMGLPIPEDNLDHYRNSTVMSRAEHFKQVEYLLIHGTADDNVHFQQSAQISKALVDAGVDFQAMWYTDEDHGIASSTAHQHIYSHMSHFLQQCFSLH

SMILES	IC50 (Dipeptidyl peptidase 4 [1]) [µM]	IC50 (Dipeptidyl peptidase 9) [µM]	IC50 (Dipeptidyl peptidase 2) [µM]	IC50 (Dipeptidyl peptidase 8) [µM]	further results
N[C@H](C(=O)N1CC[C@H](F)C1)[C@@H](C(=O)Nn1cnnn1)c1ccc(-c2ccc(F)cc2)cc1.O=C(O)C(F)(F)F	0.011	> 100	> 100	–	half-life [2]: 0.2 h; clearance [3]: 3.3 L/h/kg; bioavailability (in vivo): < 1%
CN(C)C[C@@H](c1ccc(-c2ccc(F)cc2)cc1)[C@H](N)C(=O)N1CC[C@H](F)C1	1.6	> 100	2.5	–	–
CN(C)C(=O)[C@@H](c1ccc(-c2ccc(F)cc2)cc1)[C@H](N)C(=O)N1CCC[C@H]1C#N	0.0033	–	40	–	–
CCNC(=O)[C@@H](c1ccc(-c2ccc(F)cc2)cc1)[C@H](N)C(=O)N1CC[C@H](F)C1	0.11	> 100	90	> 100	–
CN(C)C(=O)[C@@H](c1ccc(-c2ccc(F)c(F)c2)cc1)[C@H](N)C(=O)N1CC[C@H](F)C1	0.021	–	44	–	–
CN(C)C(=O)[C@@H](c1ccc(-c2ccc(F)cc2)cc1)[C@H](N)C(=O)N1CCCC1.O=C(O)C(F)(F)F	0.0075	–	26	–	half-life [2]: 2 h; clearance [3]: 0.96 L/h/kg; bioavailability (in vivo): 100%
CNC(=O)[C@@H](c1ccc(-c2ccc(F)cc2)cc1)[C@H](N)C(=O)N1CC[C@H](F)C1	0.037	> 100	> 100	–	–
CN(C)C(=O)[C@@H](c1ccc(-c2ccc(F)cc2)cc1)[C@H](N)C(=O)N1CCCCC1	0.55	> 100	38	> 100	–
CN(C)C(=O)[C@@H](c1ccc(-c2ccc(F)cc2)cc1)[C@H](N)C(=O)N1CC[C@H](F)C1.O=C(O)C(F)(F)F	–	–	–	–	IC50 (Dipeptidyl peptidase 4 [4]): 0.05 µM; IC50 (Dipeptidyl peptidase 4 [5]): 0.071 µM; IC50 (Dipeptidyl peptidase 4 [6]): 0.23 µM; half-life [7]: 6.1 h; half-life [8]: 4.7 h; half-life [2]: 3.5 h; clearance [9]: 0.09 L/h/kg; clearance [10]: 0.144 L/h/kg; clearance [3]: 0.288 L/h/kg
N[C@H](C(=O)N1CC[C@H](F)C1)[C@@H](C(=O)N1CCCC1)c1ccc(-c2ccc(F)cc2)cc1.O=C(O)C(F)(F)F	0.0092	–	5.6	–	half-life [2]: 1.7 h; clearance [3]: 1.08 L/h/kg; bioavailability (in vivo): 21%
N[C@H](C(=O)N1CC[C@H](F)C1)[C@@H](Cn1cnnn1)c1ccc(-c2ccc(F)cc2)cc1	0.192	> 100	> 100	> 100	–
CN(C)C(=O)[C@@H](c1ccc(-c2ccc(F)cc2)cc1)[C@H](N)C(=O)N1CC(F)(F)C1	0.029	> 100	9.4	> 100	–
CN(C)C(=O)[C@@H](c1ccc(-c2ccc(F)cc2)cc1)[C@H](N)C(=O)N1CCS(=O)(=O)C1	0.23	> 100	75	> 100	–
CON(C)C(=O)[C@@H](c1ccc(-c2ccc(F)cc2)cc1)[C@H](N)C(=O)N1CC[C@H](F)C1	0.045	> 100	> 100	–	–
COC(=O)[C@@H](c1ccc(-c2ccc(F)cc2)cc1)[C@H](N)C(=O)N1CC[C@H](F)C1	0.22	> 100	21	> 100	–
CCN(C)C(=O)[C@@H](c1ccc(-c2ccc(F)cc2)cc1)[C@H](N)C(=O)N1CC[C@H](F)C1	0.02	> 100	43	–	–
CN(C)C(=O)[C@@H](c1ccc(-c2cccc(-[n+]3ccccc3)c2)cc1)[C@H](N)C(=O)N1CC[C@H](F)C1	0.019	> 100	57	–	–
CN(C)C(=O)[C@@H](c1ccc(-c2ccc(-[n+]3ccccc3)cc2)cc1)[C@H](N)C(=O)N1CC[C@H](F)C1	0.02	–	89	> 100	–

Further compounds by falling IC50 (Dipeptidyl peptidase 4 [1]), results first:

IC50 (Dipeptidyl peptidase 4 [1]) [µM]	IC50 (Dipeptidyl peptidase 9) [µM]	IC50 (Dipeptidyl peptidase 2) [µM]	IC50 (Dipeptidyl peptidase 8) [µM]	SMILES	further results
3.5	> 100	0.7	–	N[C@H](C(=O)N1CC[C@H](F)C1)[C@@H](CN1CCCC1)c1ccc(-c2ccc(F)cc2)cc1	–
0.98	> 100	> 100	> 100	N[C@@H](Cc1ccc(-c2ccc(F)cc2)cc1)C(=O)N1CC[C@H](F)C1	–
0.52	> 100	77	> 100	CN(C)C(=O)[C@@H](c1ccc(-c2ccc(F)cc2)cc1)[C@H](N)C(=O)N1CCOCC1	–
0.39	> 100	15	> 100	N[C@H](C(=O)N1CC[C@H](F)C1)[C@@H](CO)c1ccc(-c2ccc(F)cc2)cc1	–
0.11	> 100	> 100	> 100	NC(=O)[C@@H](c1ccc(-c2ccc(F)cc2)cc1)[C@H](N)C(=O)N1CC[C@H](F)C1	–
0.1	> 100	> 100	> 100	CN(C)C(=O)[C@@H](c1ccc(-c2ccc(F)cc2)cc1)[C@H](N)C(=O)N1CCC1	–
0.099	> 100	76	–	CC(C)NC(=O)[C@@H](c1ccc(-c2ccc(F)cc2)cc1)[C@H](N)C(=O)N1CC[C@H](F)C1	–
0.094	> 100	–	–	N[C@H](C(=O)N1CC[C@H](F)C1)[C@@H](C(=O)NCCO)c1ccc(-c2ccc(F)cc2)cc1	–
0.071	> 100	55	–	N[C@H](C(=O)N1CC[C@H](F)C1)[C@@H](C(=O)NC1CC1)c1ccc(-c2ccc(F)cc2)cc1	–
0.067	> 100	> 100	–	CN(C)NC(=O)[C@@H](c1ccc(-c2ccc(F)cc2)cc1)[C@H](N)C(=O)N1CC[C@H](F)C1	–
0.059	> 100	48	–	CCN(CC)C(=O)[C@@H](c1ccc(-c2ccc(F)cc2)cc1)[C@H](N)C(=O)N1CC[C@H](F)C1	–
0.056	> 100	11	–	CN(C)C(=O)[C@@H](c1ccc(-c2cc(F)ccc2F)cc1)[C@H](N)C(=O)N1CC[C@H](F)C1	–
0.044	> 100	5.3	–	N[C@H](C(=O)N1CC[C@H](F)C1)[C@@H](C(=O)N1CCC1)c1ccc(-c2ccc(F)cc2)cc1	–
0.043	–	57	–	CN(C)C(=O)[C@@H](c1ccc(-c2cccc(C#N)c2)cc1)[C@H](N)C(=O)N1CC[C@H](F)C1	–
0.027	–	7.1	–	CN(C)C(=O)[C@@H](c1ccc(-c2ccc(F)cc2)cc1)[C@H](N)C(=O)N1CCC(F)(F)C1	–
0.021	> 100	81	> 100	CN(C)C(=O)[C@@H](c1ccc(-c2cccc(S(C)(=O)=O)c2)cc1)[C@H](N)C(=O)N1CC[C@H](F)C1	–
0.017	> 100	58	> 100	CN(C)C(=O)[C@@H](c1ccc(-c2ccc(F)cc2)cc1)[C@H](N)C(=O)N1CC(F)C1	–
0.013	> 100	15	–	CN(C)C(=O)[C@@H](c1ccc(-c2ccc(F)cc2F)cc1)[C@H](N)C(=O)N1CC[C@H](F)C1	–
0.0091	–	8.5	–	CN(C)C(=O)[C@@H](c1ccc(-c2ccc(F)cc2)cc1)[C@H](N)C(=O)N1CCSC1	–
0.0066	> 100	> 100	> 100	N[C@H](C(=O)N1CC[C@H](F)C1)[C@@H](C(=O)O)c1ccc(-c2ccc(F)cc2)cc1.O=C(O)C(F)(F)F	half-life [11]: 3.1 h; clearance [3]: 0.015 L/h/kg; bioavailability (in vivo): 16%
0.0022	> 100	29	> 100	CN(C)C(=O)[C@@H](c1ccc(-c2cccc(-n3cnnn3)c2)cc1)[C@H](N)C(=O)N1CC[C@H](F)C1.O=C(O)C(F)(F)F	half-life [2]: 0.74 h; clearance [3]: 1.08 L/h/kg; bioavailability (in vivo): < 1%
